Experimental data: patent publication US20070049538A1, “METHODS FOR USING CUCURBITACIN COMPOUNDS” (SOUTH DAKOTA STATE UNIVERSITY, priority 2005, published 2007)

Experiments:
HSC-T6 cells [1] = assay: Serum-driven HSC-T6 proliferation, experiment 3 (24 h, proliferating cells); assay type: cell-based, rat; conditions: HSC-T6, 24 h, proliferating cells; read-out: Experiment 3 EC50 (A)
HepG2 cells = assay: cells; conditions: for EC50: read-out: EC50 cytoprotection, Table 7, HepG2 against CCl4 toxicity, estimated
From the text: Experimental conditions were standardized on silybin. […]
The ratio of IC50-to-EC50 (hereafter T/A) is also indicated in this table, which gives the margin between toxic and cytoprotective concentrations.

HSC-T6 cells [2] = assay: Serum-driven HSC-T6 proliferation, experiment 1 (4 h challenge, two days drug-free growth); assay type: cell-based, rat; conditions: for EC50: HSC-T6, 4 h challenge, then two days drug-free media
[3] = Chromatographic hydrophobicity index (CHI) by RP-HPLC in buffered acetonitrile; assay type: physicochemical; design: key: CHI = φ0 (isocratic hydrophobicity index), = A·tR + B; ACN % scale; conditions: for CHIACN1: buffered acetonitrile pH 7.0, Alltima C18 250 mm, Eq. (2) from isocratic φ0; for CHIACN2: buffered acetonitrile pH 7.0, Eq. (3) calibrated against published CHI
[4] = test system: lipid peroxidation of microsomal suspension; assay: Microsomal Lipid Peroxidation Assay; assay type: biochemical; conditions: at 0.1 mM, both chemical and enzymatic assays
Procedure: Cucurbitacin anti-lipid peroxidation was studied by the Microsomal Lipid Peroxidation Assay (Engineer et al., Biochemical Pharmacology 38(8): 1279-1285, 1989). Lipid peroxidation of microsomal suspension was induced both enzymatically and chemically and validated on the standard compound quercetin. […] Activity of 3 cucurbitacin analogs, B, E, and E-Me-ether was monitored at 0.1 mM indicating no inhibition in either the chemical or enzymatic assay.

HSC-T6 cells [5] = assay: Cytotoxicity on HSC-T6 cells (experiment 3); assay type: cell-based, rat; conditions: read-out: Experiment 3 IC50 (T)
From the text: Cytotoxicity of all cucurbitacin analogs was additionally measured in experiment 3 (Table 8).

Compound: CC(=O)OC(C)(C)/C=C/C(=O)[C@](C)(O)[C@H]1[C@H](O)C[C@@]2(C)[C@@H]3CC=C4[C@H](C[C@H](O)C(=O)C4(C)C)[C@]3(C)C(=O)C[C@]12C [B, cucurbitacin B]
- EC50 (HSC-T6 cells [1]): 0.02 µM
- cytoprotection on HepG2 cells (HepG2 cells; at 6.25% of IC50, against CCl4): 12.45 ± 1.11
- cytoprotection on HepG2 cells (HepG2 cells; at 12.5% of IC50, against CCl4): 25.25 ± 1.36
- cytoprotection on HepG2 cells (HepG2 cells; at 20% of IC50, against CCl4): 34.92 ± 2.76
- cytoprotection on HepG2 cells (HepG2 cells; at 50% of IC50, against CCl4): 60.01 ± 0.80
- EC50 (HepG2 cells): 10.5 µM
- EC50 (HSC-T6 cells [2]): 1.18 µM
- CHIACN1 [3]: 70.93
- CHIACN2 [3]: 75.40
- inhibition of lipid peroxidation [4]: no inhibition
- IC50 (HSC-T6 cells [5]): 4.4 µM

Compound: CC(=O)OC(C)(C)/C=C/C(=O)[C@](C)(O)[C@H]1[C@H](O)C[C@@]2(C)[C@@H]3CC=C4[C@@H](C=C(O[C@@H]5O[C@H](CO)[C@@H](O)[C@H](O)[C@H]5O)C(=O)C4(C)C)[C@]3(C)C(=O)C[C@]12C [E-Gluc, cucurbitacin E glucoside]
- EC50 (HSC-T6 cells [1]): 3.28 µM
- cytoprotection on HepG2 cells (HepG2 cells; at 6.25% of IC50, against CCl4): −2.36 ± 1.08
- cytoprotection on HepG2 cells (HepG2 cells; at 12.5% of IC50, against CCl4): 17.96 ± 1.14
- cytoprotection on HepG2 cells (HepG2 cells; at 20% of IC50, against CCl4): 49.44 ± 0.29
- cytoprotection on HepG2 cells (HepG2 cells; at 50% of IC50, against CCl4): 33.92 ± 2.92
- EC50 (HepG2 cells): 45.3 µM
- anti-proliferation activity (HSC-T6 cells [2]; Experiment 1, FIG. 7, 150 μM): about 38%
- Experiment 1 anti-proliferation activity (HSC-T6 cells [2]; measured at 100 μM): ˜46%^a^
- CHIACN1 [3]: 53.98
- CHIACN2 [3]: 49.13
- IC50 (HSC-T6 cells [5]): 102 µM

Compound: Cucurbitacin E-Me ether
- EC50 (HSC-T6 cells [1]): 0.08 µM
- EC50 (HepG2 cells): 2.4 µM
- EC50 (HSC-T6 cells [2]): 3.05 µM
- CHIACN1 [3]: 77.84
- CHIACN2 [3]: 86.09
- inhibition of lipid peroxidation [4]: no inhibition
- IC50 (HSC-T6 cells [5]): 2.8 µM

Compound: cucurbitacin E
- EC50 (HSC-T6 cells [1]): 0.04 µM
- cytoprotection on HepG2 cells (HepG2 cells; at 6.25% of IC50, against CCl4): 12.41 ± 0.78
- cytoprotection on HepG2 cells (HepG2 cells; at 12.5% of IC50, against CCl4): 21.72 ± 0.75
- cytoprotection on HepG2 cells (HepG2 cells; at 20% of IC50, against CCl4): 49.21 ± 1.73
- cytoprotection on HepG2 cells (HepG2 cells; at 50% of IC50, against CCl4): 80.55 ± 6.80
- EC50 (HepG2 cells): 3.2 µM
- EC50 (HSC-T6 cells [2]): 0.86 µM
- CHIACN1 [3]: 75.92
- CHIACN2 [3]: 83.13
- inhibition of lipid peroxidation [4]: no inhibition
